According to the NIST ThermoML archive (doi:10.1016/j.fluid.2014.09.020):
± gives the expanded uncertainty stated by the source.

Experiment: mn = molality of the nth substance listed, in mol/kg
Settings: 101 kPa, Liquid; for viscosity: Capillary tube (Ostwald / Ubbelohde) method; for electrical conductivity: Direct current cell with electrodes; for mass density: Vibrating tube method

CCCC[N+]1(C)CCCCC1.[Br-] [N-butyl-N-methylpiperidinium bromide] + O
Settings | electrical conductivity [S/m] | mass density [kg/m3] | viscosity [mPa·s]
293.15 K, m1 = 0.25 | 1.58 ± 0.02 | 1008.15 ± 0.24 | 1.271 ± 0.016
293.15 K, m1 = 0.5006 | 2.29 ± 0.02 | 1017.18 ± 0.24 | 1.451 ± 0.018
293.15 K, m1 = 0.7499 | 2.83 ± 0.02 | 1025.78 ± 0.25 | 1.631 ± 0.02
293.15 K, m1 = 0.9999 | 3.23 ± 0.02 | 1034.01 ± 0.26 | 1.819 ± 0.023
293.15 K, m1 = 1.25 | 3.5 ± 0.02 | 1041.71 ± 0.26 | 2.004 ± 0.025
293.15 K, m1 = 1.5 | 3.66 ± 0.02 | 1049.03 ± 0.27 | 2.199 ± 0.027
293.15 K, m1 = 1.75 | 3.77 ± 0.02 | 1055.94 ± 0.27 | 2.422 ± 0.03
293.15 K, m1 = 2 | 3.83 ± 0.02 | 1062.38 ± 0.28 | 2.663 ± 0.033
293.15 K, m1 = 2.2 | 3.85 ± 0.02 | 1067.29 ± 0.28 | 2.863 ± 0.035
293.15 K, m1 = 2.4 | 3.87 ± 0.02 | 1071.91 ± 0.29 | 3.084 ± 0.038
298.15 K, m1 = 0.25 | 1.64 ± 0.02 | 1006.6 ± 0.23 | 1.114 ± 0.014
298.15 K, m1 = 0.5006 | 2.44 ± 0.02 | 1015.55 ± 0.24 | 1.283 ± 0.016
298.15 K, m1 = 0.7499 | 3.04 ± 0.02 | 1024.1 ± 0.25 | 1.442 ± 0.018
298.15 K, m1 = 0.9999 | 3.49 ± 0.02 | 1032.29 ± 0.25 | 1.598 ± 0.02
298.15 K, m1 = 1.25 | 3.78 ± 0.02 | 1039.86 ± 0.26 | 1.75 ± 0.022
298.15 K, m1 = 1.5 | 3.96 ± 0.02 | 1047.06 ± 0.27 | 1.907 ± 0.024
298.15 K, m1 = 1.75 | 4.08 ± 0.02 | 1053.87 ± 0.27 | 2.087 ± 0.026
298.15 K, m1 = 2 | 4.15 ± 0.02 | 1060.17 ± 0.28 | 2.287 ± 0.028
298.15 K, m1 = 2.2 | 4.17 ± 0.02 | 1064.99 ± 0.28 | 2.457 ± 0.03
298.15 K, m1 = 2.4 | 4.2 ± 0.02 | 1069.52 ± 0.28 | 2.649 ± 0.033
303.15 K, m1 = 0.25 | 1.77 ± 0.02 | 1004.71 ± 0.23 | 0.9885 ± 0.012
303.15 K, m1 = 0.5006 | 2.61 ± 0.02 | 1013.61 ± 0.24 | 1.133 ± 0.014
303.15 K, m1 = 0.7499 | 3.26 ± 0.02 | 1022.18 ± 0.25 | 1.266 ± 0.016
303.15 K, m1 = 0.9999 | 3.75 ± 0.02 | 1030.35 ± 0.25 | 1.394 ± 0.017
303.15 K, m1 = 1.25 | 4.09 ± 0.02 | 1037.65 ± 0.26 | 1.528 ± 0.019
303.15 K, m1 = 1.5 | 4.32 ± 0.02 | 1044.94 ± 0.26 | 1.67 ± 0.021
303.15 K, m1 = 1.75 | 4.48 ± 0.02 | 1051.69 ± 0.27 | 1.812 ± 0.022
303.15 K, m1 = 2 | 4.57 ± 0.02 | 1057.79 ± 0.27 | 1.972 ± 0.024
303.15 K, m1 = 2.2 | 4.6 ± 0.02 | 1062.59 ± 0.28 | 2.119 ± 0.026
303.15 K, m1 = 2.4 | 4.63 ± 0.02 | 1066.98 ± 0.28 | 2.279 ± 0.028
308.15 K, m1 = 0.25 | 1.86 ± 0.02 | 1002.93 ± 0.23 | 0.882 ± 0.011
308.15 K, m1 = 0.5006 | 2.77 ± 0.02 | 1011.89 ± 0.24 | 0.98 ± 0.012
308.15 K, m1 = 0.7499 | 3.47 ± 0.02 | 1020.33 ± 0.24 | 1.078 ± 0.013
308.15 K, m1 = 0.9999 | 4.01 ± 0.02 | 1028.69 ± 0.25 | 1.179 ± 0.015
308.15 K, m1 = 1.25 | 4.39 ± 0.02 | 1035.69 ± 0.26 | 1.282 ± 0.016
308.15 K, m1 = 1.5 | 4.64 ± 0.02 | 1043.08 ± 0.26 | 1.392 ± 0.017
308.15 K, m1 = 1.75 | 4.82 ± 0.02 | 1049.51 ± 0.27 | 1.511 ± 0.019
308.15 K, m1 = 2 | 4.92 ± 0.02 | 1055.41 ± 0.27 | 1.639 ± 0.02
308.15 K, m1 = 2.2 | 4.96 ± 0.02 | 1060.23 ± 0.28 | 1.749 ± 0.022
308.15 K, m1 = 2.4 | 4.99 ± 0.02 | 1064.28 ± 0.28 | 1.868 ± 0.023

CC[N+]1(C)CCCCC1.[Br-] [N-ethyl-N-methylpiperidinium bromide] + O
Settings | electrical conductivity [S/m] | mass density [kg/m3] | viscosity [mPa·s]
293.15 K, m1 = 0.2501 | 1.67 ± 0.02 | 1009.34 ± 0.24 | 1.412 ± 0.018
293.15 K, m1 = 0.5 | 2.69 ± 0.02 | 1019.49 ± 0.24 | 1.432 ± 0.018
293.15 K, m1 = 0.75 | 3.46 ± 0.02 | 1029.24 ± 0.25 | 1.492 ± 0.018
293.15 K, m1 = 0.9992 | 4.01 ± 0.02 | 1038.65 ± 0.26 | 1.587 ± 0.02
293.15 K, m1 = 1.25 | 4.41 ± 0.02 | 1047.4 ± 0.27 | 1.707 ± 0.021
293.15 K, m1 = 1.5 | 4.68 ± 0.02 | 1055.5 ± 0.27 | 1.849 ± 0.023
293.15 K, m1 = 1.75 | 4.84 ± 0.02 | 1063.82 ± 0.28 | 2.021 ± 0.025
293.15 K, m1 = 1.998 | 4.94 ± 0.02 | 1071.67 ± 0.29 | 2.208 ± 0.027
293.15 K, m1 = 2.2 | 5.03 ± 0.02 | 1077.12 ± 0.29 | 2.361 ± 0.029
293.15 K, m1 = 2.4 | 5.12 ± 0.02 | 1082.45 ± 0.29 | 2.521 ± 0.031
298.15 K, m1 = 0.2501 | 1.94 ± 0.02 | 1007.59 ± 0.23 | 1.254 ± 0.016
298.15 K, m1 = 0.5 | 2.92 ± 0.02 | 1017.73 ± 0.24 | 1.274 ± 0.016
298.15 K, m1 = 0.75 | 3.72 ± 0.02 | 1027.52 ± 0.25 | 1.325 ± 0.017
298.15 K, m1 = 0.9992 | 4.36 ± 0.02 | 1036.99 ± 0.26 | 1.401 ± 0.017
298.15 K, m1 = 1.25 | 4.82 ± 0.02 | 1045.62 ± 0.27 | 1.516 ± 0.019
298.15 K, m1 = 1.5 | 5.14 ± 0.02 | 1053.61 ± 0.27 | 1.655 ± 0.021
298.15 K, m1 = 1.75 | 5.42 ± 0.02 | 1061.89 ± 0.28 | 1.787 ± 0.022
298.15 K, m1 = 1.998 | 5.61 ± 0.02 | 1069.59 ± 0.28 | 1.932 ± 0.024
298.15 K, m1 = 2.2 | 5.68 ± 0.02 | 1074.97 ± 0.29 | 2.069 ± 0.026
298.15 K, m1 = 2.4 | 5.73 ± 0.02 | 1080.2 ± 0.29 | 2.2 ± 0.027
303.15 K, m1 = 0.2501 | 2.02 ± 0.02 | 1005.68 ± 0.23 | 1.038 ± 0.013
303.15 K, m1 = 0.5 | 3.08 ± 0.02 | 1015.67 ± 0.24 | 1.091 ± 0.014
303.15 K, m1 = 0.75 | 3.95 ± 0.02 | 1025.8 ± 0.25 | 1.161 ± 0.015
303.15 K, m1 = 0.9992 | 4.65 ± 0.02 | 1034.64 ± 0.26 | 1.248 ± 0.016
303.15 K, m1 = 1.25 | 5.15 ± 0.02 | 1043.44 ± 0.26 | 1.349 ± 0.017
303.15 K, m1 = 1.5 | 5.5 ± 0.02 | 1051.59 ± 0.27 | 1.46 ± 0.018
303.15 K, m1 = 1.75 | 5.81 ± 0.02 | 1059.87 ± 0.28 | 1.583 ± 0.02
303.15 K, m1 = 1.998 | 6.02 ± 0.02 | 1067.36 ± 0.28 | 1.712 ± 0.021
303.15 K, m1 = 2.2 | 6.09 ± 0.02 | 1072.73 ± 0.29 | 1.82 ± 0.023
303.15 K, m1 = 2.4 | 6.15 ± 0.02 | 1077.82 ± 0.29 | 1.931 ± 0.024
308.15 K, m1 = 0.2501 | 2.24 ± 0.02 | 1003.67 ± 0.23 | 0.8791 ± 0.011
308.15 K, m1 = 0.5 | 3.29 ± 0.02 | 1013.78 ± 0.24 | 0.9294 ± 0.012
308.15 K, m1 = 0.75 | 4.2 ± 0.02 | 1023.78 ± 0.25 | 0.9953 ± 0.013
308.15 K, m1 = 0.9992 | 4.98 ± 0.02 | 1032.63 ± 0.25 | 1.074 ± 0.013
308.15 K, m1 = 1.25 | 5.54 ± 0.02 | 1041.4 ± 0.26 | 1.163 ± 0.015
308.15 K, m1 = 1.5 | 5.93 ± 0.02 | 1049.3 ± 0.27 | 1.26 ± 0.016
308.15 K, m1 = 1.75 | 6.34 ± 0.02 | 1057.7 ± 0.27 | 1.363 ± 0.017
308.15 K, m1 = 1.998 | 6.61 ± 0.02 | 1064.48 ± 0.28 | 1.469 ± 0.018
308.15 K, m1 = 2.2 | 6.66 ± 0.02 | 1070.15 ± 0.29 | 1.554 ± 0.019
308.15 K, m1 = 2.4 | 6.69 ± 0.02 | 1075.12 ± 0.29 | 1.639 ± 0.02
